According to PubChem BioAssay AID248 (DTP/NCI, 2004):
Where “and” joins values, the source holds several entries; their conditions need not be identical. Equal entries are not always repeated. Inconclusive results and toxic doses are left out. Rule as the data show it: active = T/C of 150% or more; inactive = T/C below 125%.

System: L1210 leukemia ip in BDF1 mice, survival T/C
Test: NCI In Vivo Anticancer Drug Screen. Data for tumor model L1210 Leukemia (intraperitoneal) in B6D2F1 (BDF1) mice
Conditions: endpoint: mean survival time, higher = longer survival
Procedure, shortened: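 In this screen, tumor-bearing mice given compound are compared to those given vehicle, and their survival values are reported as a treated-to-control quotient.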

[1] = dose: 100.0 mg/kg/injection, schedule: Q04DX003 (ip), vehicle: Klucel (hydroxypropylcellulose) (HPC)
[2] = dose: 200.0 mg/kg/injection, schedule: Q04DX003 (ip), vehicle: Klucel (hydroxypropylcellulose) (HPC)
[3] = dose: 400.0 mg/kg/injection, schedule: Q04DX003 (ip), vehicle: Klucel (hydroxypropylcellulose) (HPC)
[4] = dose: 100.0 mg/kg/injection, schedule: Q04DX003 (ip), vehicle: saline
[5] = dose: 200.0 mg/kg/injection, schedule: Q04DX003 (ip), vehicle: saline
[6] = dose: 400.0 mg/kg/injection, schedule: Q04DX003 (ip), vehicle: saline
[7] = dose: 100.0 mg/kg/injection, schedule: Q04DX003 (ip), vehicle: saline with Tween-80
[8] = dose: 200.0 mg/kg/injection, schedule: Q04DX003 (ip), vehicle: saline with Tween-80
[9] = dose: 400.0 mg/kg/injection, schedule: Q04DX003 (ip), vehicle: saline with Tween-80
[10] = dose: 100.0 mg/kg/injection, schedule: Q01DX001 (ip), vehicle: saline
[11] = dose: 200.0 mg/kg/injection, schedule: Q01DX001 (ip), vehicle: saline
[12] = dose: 400.0 mg/kg/injection, schedule: Q01DX001 (ip), vehicle: saline
[13] = dose: 100.0 mg/kg/injection, schedule: Q01DX001 (ip), vehicle: carboxymethylcellulose (CMC)
[14] = dose: 200.0 mg/kg/injection, schedule: Q01DX001 (ip), vehicle: carboxymethylcellulose (CMC)
[15] = dose: 100.0 mg/kg/injection, schedule: Q01DX001 (ip), vehicle: acetone
[16] = dose: 200.0 mg/kg/injection, schedule: Q01DX001 (ip), vehicle: acetone
[17] = dose: 400.0 mg/kg/injection, schedule: Q01DX001 (ip), vehicle: acetone
[18] = dose: 12.5 mg/kg/injection, schedule: Q01DX009 (ip), vehicle: Klucel (hydroxypropylcellulose) (HPC)
[19] = dose: 25.0 mg/kg/injection, schedule: Q01DX009 (ip), vehicle: Klucel (hydroxypropylcellulose) (HPC)
[20] = dose: 50.0 mg/kg/injection, schedule: Q04DX003 (ip), vehicle: saline
[21] = dose: 100.0 mg/kg/injection, schedule: Q01DX009 (ip), vehicle: saline
[22] = dose: 200.0 mg/kg/injection, schedule: Q01DX009 (ip), vehicle: saline
[23] = dose: 400.0 mg/kg/injection, schedule: Q01DX009 (ip), vehicle: saline
[24] = dose: 50.0 mg/kg/injection, schedule: Q01DX009 (ip), vehicle: saline
[25] = dose: 50.0 mg/kg/injection, schedule: Q04DX003 (ip), vehicle: saline with Tween-80

Measured: T/C

O=S(=O)(OCC(F)(F)F)c1ccccc1
inactive: dose: 100.0 mg/kg/injection, schedule: Q01DX009 (ip), vehicle: Klucel (hydroxypropylcellulose) (HPC) 103 % of control | [1] 97 % of control | dose: 200.0 mg/kg/injection, schedule: Q01DX009 (ip), vehicle: Klucel (hydroxypropylcellulose) (HPC) 101 % of control | [2] 102 % of control | [3] 103 % of control

S=c1nc(-c2ccccc2)c(-c2ccccc2)n[nH]1
inactive: [4] 100 % of control | [5] 98 % of control | [6] 98 % of control

CC(=O)C(c1ccccc1)(c1ccccc1)c1ccccc1
inactive: [7] 96 % of control | [8] 93 % of control | [9] 91 % of control

CC(C)(C#N)CCCCC(C)(C)C#N
inactive: dose: 50.0 mg/kg/injection, schedule: Q01DX001 (ip), vehicle: saline 105 % of control | [10] 108 % of control | [11] 102 % of control | [12] 100 % of control

CCCCCCCCCCCCCCCCCCNC(=O)NCc1ccncc1
inactive: dose: 100.0 mg/kg/injection, schedule: Q04DX002 (ip), vehicle: Klucel (hydroxypropylcellulose) (HPC) 94 % of control | dose: 200.0 mg/kg/injection, schedule: Q04DX002 (ip), vehicle: Klucel (hydroxypropylcellulose) (HPC) 123 % of control | dose: 400.0 mg/kg/injection, schedule: Q04DX002 (ip), vehicle: Klucel (hydroxypropylcellulose) (HPC) 87 % of control

COc1ccc(Cl)cc1CC=O
inactive: [13] 118 % of control | [14] 118 % of control | dose: 400.0 mg/kg/injection, schedule: Q01DX001 (ip), vehicle: carboxymethylcellulose (CMC) 114 % of control

O=C(O)/C=C/c1cc(Br)sc1Br
inactive: [10] 96 % of control | [11] 107 % of control | [12] 88 % of control

c1ccc2cc3nc4cc5ccccc5cc4nc3cc2c1
inactive: [15] 95 % of control | dose: 100.0 mg/kg/injection, schedule: Q01DX009 (ip), vehicle: saline with Tween-80 93 % of control | [16] 95 % of control | dose: 200.0 mg/kg/injection, schedule: Q01DX009 (ip), vehicle: saline with Tween-80 103 % of control | [17] 92 % of control | dose: 400.0 mg/kg/injection, schedule: Q01DX009 (ip), vehicle: saline with Tween-80 87 % of control

Nc1ncnc2c1nnn2CCCCCC(=O)O
inactive: [7] 100 % of control | [8] 101 % of control | [9] 97 % of control

Nc1nc(S)c(N)c(=S)[nH]1
inactive: dose: 9.5 mg/kg/injection, schedule: Q01DX001 (ip), vehicle: carboxymethylcellulose (CMC) 105 % of control | dose: 19.0 mg/kg/injection, schedule: Q01DX001 (ip), vehicle: carboxymethylcellulose (CMC) 94 % of control | dose: 38.0 mg/kg/injection, schedule: Q01DX001 (ip), vehicle: carboxymethylcellulose (CMC) 97 % of control

COc1cc(N)ccn1
inactive: dose: 100.0 mg/kg/injection, schedule: Q04DX003 (ip), vehicle: acetone 95 % of control | dose: 200.0 mg/kg/injection, schedule: Q04DX003 (ip), vehicle: acetone 94 % of control | dose: 400.0 mg/kg/injection, schedule: Q04DX003 (ip), vehicle: acetone 94 % of control

O=S(=O)(O)CCNC(=S)C(=S)NCCS(=O)(=O)O
inactive: dose: 100.0 mg/kg/injection, schedule: Q04DX002 (ip), vehicle: saline 101 % of control | dose: 200.0 mg/kg/injection, schedule: Q04DX002 (ip), vehicle: saline 101 % of control | dose: 400.0 mg/kg/injection, schedule: Q04DX002 (ip), vehicle: saline 101 % of control

c1cn[nH]c1
inactive: dose: 50.0 mg/kg/injection, schedule: Q01DX001 (ip), vehicle: carboxymethylcellulose (CMC) 96 % of control | [13] 100 % of control | [14] 96 % of control

C/C=C\c1ccc(OC(=O)c2ccc([N+](=O)[O-])cc2)c(OC)c1
inactive: dose: 100.0 mg/kg/injection, schedule: Q01DX001 (ip), vehicle: other 97 % of control | dose: 200.0 mg/kg/injection, schedule: Q01DX001 (ip), vehicle: other 106 % of control | dose: 400.0 mg/kg/injection, schedule: Q01DX001 (ip), vehicle: other 94 % of control

OC1CC2c3ccccc3C1c1cccc[n+]12 (configuration not stated)
inactive: [18] 98 % of control | dose: 12.5 mg/kg/injection, schedule: Q04DX003 (ip), vehicle: Klucel (hydroxypropylcellulose) (HPC) 94 % of control and 97 % of control | dose: 12.5 mg/kg/injection, schedule: Q04DX003 (ip), vehicle: saline 100 % of control | [19] 96 % of control | dose: 25.0 mg/kg/injection, schedule: Q04DX003 (ip), vehicle: Klucel (hydroxypropylcellulose) (HPC) 103 % of control and 95 % of control | dose: 25.0 mg/kg/injection, schedule: Q04DX003 (ip), vehicle: saline 103 % of control | dose: 50.0 mg/kg/injection, schedule: Q01DX009 (ip), vehicle: Klucel (hydroxypropylcellulose) (HPC) 94 % of control | dose: 50.0 mg/kg/injection, schedule: Q04DX003 (ip), vehicle: Klucel (hydroxypropylcellulose) (HPC) 94 % of control and 95 % of control | [20] 97 % of control | [4] 102 % of control

O=C(OCCOCCOCCOCCOCCOCCOCCOCCOCCOCCOCCOCCOCCOCCOCCOCCOCCOCCOCCOCCOCCOCCOC(=O)N1CC1)N1CC1
inactive: [15] 94 % of control | dose: 100.0 mg/kg/injection, schedule: Q01DX009 (ip), vehicle: acetone 98 % of control | [4] 100 % of control | [16] 94 % of control | dose: 200.0 mg/kg/injection, schedule: Q01DX009 (ip), vehicle: acetone 95 % of control | [5] 103 % of control | [17] 97 % of control | [6] 108 % of control

[O-][n+]1c2ccccc2nc2cc(Cl)ccc21
inactive: [1] 107 % of control | [2] 100 % of control | [3] 96 % of control

Clc1ccc(Cl)c(-c2csc(-c3cccnc3)n2)c1
inactive: [21] 100 % of control | [22] 100 % of control | [23] 89 % of control

Clc1ccc(C2c3ccccc3C[n+]3ccccc32)cc1 (configuration not stated)
inactive: dose: 6.25 mg/kg/injection, schedule: Q01DX009 (ip), vehicle: Klucel (hydroxypropylcellulose) (HPC) 102 % of control | [18] 104 % of control | [19] 109 % of control | dose: 35.0 mg/kg/injection, schedule: Q01DX009 (ip), vehicle: Klucel (hydroxypropylcellulose) (HPC) 112 % of control

CCCCCCCCCCCCCCCCNS(=O)(=O)c1ccc2sc(SC)nc2c1
inactive: [8] 90 % of control | [9] 90 % of control

CC(C)(C)OC(=O)N/N=C/c1ccc2c(c1)OCO2
inactive: [1] 95 % of control | [2] 97 % of control | [3] 97 % of control

O/N=C(/C(=N/O)c1ccccc1)c1ccccc1.O/N=C(/C(=N/O)c1ccccc1)c1ccccc1.[Cl][Rh][Cl]
inactive: [24] 94 % of control | [20] 95 % of control | [21] 89 % of control | [4] 95 % of control | [22] 95 % of control | [5] 94 % of control | [23] 97 % of control | [6] 94 % of control

Cc1nc(N)[nH]c(=O)c1CCCOc1ccc([N+](=O)[O-])cc1
inactive: dose: 12.5 mg/kg/injection, schedule: Q04DX002 (ip), vehicle: saline 106 % of control | dose: 25.0 mg/kg/injection, schedule: Q04DX002 (ip), vehicle: saline 102 % of control | dose: 50.0 mg/kg/injection, schedule: Q04DX002 (ip), vehicle: saline 95 % of control

O=C(NOCc1cscn1)NC1CCCCC1
inactive: dose: 75.0 mg/kg/injection, schedule: Q01DX001 (ip), vehicle: saline 98 % of control

Cc1ccc2c(c1)P(O)(=S)c1cc(F)ccc1O2 (configuration not stated)
inactive: [24] 113 % of control | [21] 103 % of control | [22] 110 % of control

CC(=O)OCC#CCOC(C)=O
inactive: [25] 100 % of control | [7] 97 % of control | [8] 97 % of control

CC(=O)Cn1c(=O)oc2ccccc2c1=O
inactive: [25] 102 % of control | [7] 108 % of control | [8] 102 % of control
